pIC50: −log10 of the molar value.
Columns and labels:
[1] = system: MDCK cells; assay: Toxicity observed in the cell scattering screening; assay type: cell-based
Protocol: (§1) For scattering assays, MDCK cells were pre-incubated with compounds for 2 hours at 0.1-100 μM concentrations at 37° C. in a humidified atmosphere of 5% CO2, followed by 24 hr stimulation with 20 ng/ml HGF (R&D Systems), as previously described (Patane et al., Biochem Biophys Res Commun 375, 184-189, 2008). The cells were further incubated at 37° C. in an atmosphere of 5% CO2 for 24-48 hours, washed with phosphate-buffered saline (PBS; Gibco BRL), and fixed in PFA (Sigma). The quantification of scattering response was performed by counting the number of cells with scattered morphology in 30 independent colonies. The […] corresponds to the concentration of compounds leading to a 50% inhibition of Met-triggered cell scattering. Active compounds were assayed to impair scattering response also on human breast MCF10A cells following the same procedure. For survival assays, GTL-16, HepG2 and U-87 cells were cultured in serum-free media for 24 hours prior to compound addition for 48 hours. Viability was assessed with the Cell Titer Glo Luminescent Assay (Promega). For in vitro tumorigenesis, soft agar growth assays were preformed using GTL-16, HepG2, and U-87 cells, as previously described (Patane et al., Cancer Res 66, 4750-4757, 2006).
Compounds of examples 1 (XIII), 2 (XIV), 4 (XVI), 5 (XVII), and 6 (XVIII) in particular elicit inhibitory activity on Met-triggered cell scattering. […] The SU11274 (Met inhibitor; Sugen) was used as reference compound. […] These findings were further supported by analysing the inhibitory activity of compounds on breast cells. […] Altogether, these studies identify a new class of compounds of general formula (I), which are able to interfere with Met-triggered cell scattering.

[2] = system: Met phosphorylation, HepG2 cells; assay: Met phosphorylation upon HGF stimulation in HepG2 cells; assay type: cell-based, human
Protocol: After starvation, cells were pretreated with inhibitors, then stimulated with HGF, and total extracts were analyzed as described (Maina et al., Mol Cell 7, 1293-1306, 2001). Antibodies used were anti-tubulin (Sigma), anti-phospho Y1234-1235-Met, anti-Akt, anti-phospho-Akt, anti-phospho-Gab1, anti phosphor-ErbBs, anti-phospho-PDGFR, anti-PDGFRs, anti-ERKs (Cell Signaling), anti-ErbBs, anti-Met (Santa Cruz).
Activation of Met by HGF can be biochemically evaluated by following its phosphorylation levels and activation of downstream targets. We started to biochemically characterise the inhibitory properties of identified compounds by following Met phosphorylation and its downstream targets in HepG2 cells. […] These findings were further supported using other cell lines, such as MDA-MB231 human breast cancer cells (FIG. 2).

[3] = system: GTL-16 cells; assay: In vivo tumorigenesis, GTL-16 cells injected intra-peritoneally in nude mice
Protocol: Xenografts of GTL-16 cells were established by intraperitoneal (i.p.) or subcutaneously (into the flank/leg region) injection of cells (10^6) in nude mice (S/SOPF SWISS NU/NU; Charles River). Mice were then treated with the compound of example 4 (i.p. 30 mg kg-1) or vehicle every two days (GTL-16 cell intra-peritoneally injected at d=0, treatment started at d=1) or every day (GTL-16 cell intra-peritoneally injected at d=0, treatment started at d=7; GTL-16 cell subcutaneously injected at d=0, treatment started at d=1). Treatments were performed either one day or seven days after cancer cell injection. Mice were then sacrificed, and tumor nodule numbers present in the peritoneal cavity, the measure of their diameter and their total weight was evaluated. Three independent tumorigenesis assays were performed (8 mice per group were used).
We evaluated the ability of compounds of general formula to impair tumour growth in vivo using nude mice injected intra-peritoneally with GTL-16 cells. […] For example, when compounds were administered one day after intraperitoneally injection of GTL-16 cells, the mean numbers of nodules were the following: a) mice trated with vehicle: <1 mm: 3; 1-2 mm: 9.3; 2-5 mm: 11; >5 mm: 3.5. b) mice treated with the compound of example 4: <1 mm: 0.3; 1-2 mm: 1.3; 2-5 mm: 1; >5 mm: 0.8 (FIG. 3). […] Moreover, tumour growth of GTL-16 cells subcutaneously injected was reduced by approximately 35% in mice treated with compounds (data not shown). Taken together, these findings provide evidence that the identified new scaffold interferes with tumour growth in vivo.

[4] = system: HepG2 cells; assay: Soft agar anchorage-independent growth (in vitro tumorigenesis), HepG2; assay type: cell-based; conditions: Homo sapiens, read-out: HepG2 IC 50
Protocol: (§2) MDCK cells were grown in Dulbecco's modified Eagle's medium (DMEM) (Gibco BRL) containing 4 mM L-glutamine and supplemented with 2% (v/v) foetal bovine serum (Gibco BRL), 100 U/mL penicillin, and 100 μg/mL streptomycin. Cells were plated at a density of 1000 cells per well in 24-well microplates and allowed to settle overnight at 37° C. in a humidified atmosphere of 5% CO2 prior to treatments. MCF10A human breast cells, MDA-MB231 human breast cancer cells, GTL-16 human gastric carcinoma cells, HepG2 human hepatocellular carcinoma cells, U-87 human glioblastoma-astrocytoma cells and LLC Lewis lung carcinoma cells were grown in RPMI medium (Gibco BRL) containing 4 mM L-glutamine and supplemented with 2% (v/v) foetal bovine serum (Gibco BRL), 100 U/mL penicillin, and 100 μg/mL streptomycin and kept at 37° C. in a humidified atmosphere of 5% CO2.
For scattering assays, MDCK cells were pre-incubated with compounds for 2 hours at 0.1-100 μM concentrations at 37° C. in a humidified atmosphere of 5% CO2, followed by 24 hr stimulation with 20 ng/ml HGF (R&D Systems), as previously described (Patane et al., Biochem Biophys Res Commun 375, 184-189, 2008). […] The quantification of scattering response was performed by counting the number of cells with scattered morphology in 30 independent colonies. […] Viability was assessed with the Cell Titer Glo Luminescent Assay (Promega). […]

[5] = system: Met-triggered cell scattering, MDCK cells; assay: HGF-induced MDCK cell scattering assay; assay type: cell-based; conditions: Canis lupus familiaris; MDCK cells, 20 ng/ml HGF; read-out: IC50 scattering inhibition
Protocol: as §2, §1
Compounds were first submitted to a biological screening of cell motility, namely scattering response. MDCK epithelial cells acquire a “scattered phenotype” following stimulation by the Met ligand, HGF (Chan et al., J Biomol Screen. 13, 847-854, 2008; Corso et al., Trends Mol Med 11, 284-292, 2005; Patane et al., Biochem Biophys Res Commun 375, 184-189, 2008), allowing direct evaluation of compounds on Met functions. The Met inhibitor […] was used as control in all assays (Schiering et al., Proc Natl Acad Sci USA 100, 12654-12659, 2003).

[6] = i.p. 30 mg kg-1, treatment one day after i.p. injection of GTL-16 cells
[7] = nude mice injected i.p. with GTL-16 cells

## O=C(Cc1cc(C(F)(F)F)cc(C(F)(F)F)c1)N[C@@H](Cc1ccccc1)C(=O)Nc1ccc(-c2cn3c(n2)sc2ccccc23)cc1 [Example 4, (S)-2-(3,5-bis(trifluoromethyl)phenylacetamido)-3-phenyl-N-[4-(imidazo[2,1-b]benzothiazol-2-yl)phenyl]propanamide]
[1]
  Concentration at which toxicity was or was not observed: 100 µM
[1]; Table 1, scattering screening
  Toxicity: >50 µM
[2]
  Met phosphorylation: significantly reduced
[3]; [6]
  mean number of nodules 1-2 mm: 1.3
  mean number of nodules 2-5 mm: 1
  mean number of nodules <1 mm: 0.3
  mean number of nodules >5 mm: 0.8
[3]; [7]
  number of tumours: drastically reduced
  total weight of tumours: drastically reduced
[4]
  pIC50: 6.49
[5]
  pIC50: 6.77

From patent US8822698B2, “Aminoacid derivatives, their process of preparation and their therapeutical uses as inhibitors of oncogenic signals by the Met family” (Universite D'Aix-Marseille, priority 2009, dated 2014)
